SMILES | melting point
Cc1oc(-c2ccccc2)nc1COc1ccc(CON=C(CCCCC(=O)O)c2ccccc2)cc1 | 101 to 102 °C
COCCN1CCN(C(C)c2ccc(-c3ccc(F)cc3)cc2)CC1 (centres undefined) | 61 to 62 °C
O=C1COc2cc(S(=O)(=O)c3ccccc3)ccc2N1CC1=NCCN1 | 114 to 116 °C
N#CCC(C#N)=NNc1c(Cl)cc(C(F)(F)F)cc1Cl | 80 to 82 °C
CC(C)CNC(=O)c1cccnc1Oc1cccc(Cl)c1 | 86 to 87 °C
ON=Cc1sc(Cl)nc1Cl | 160 °C
N#Cc1c(N2CCN(C(=O)c3cccs3)CC2)c2cc(Cl)cnc2n(CC(=O)c2ccccc2)c1=O | 316 °C
COc1cccc(S(=O)(=O)N(C)C)c1C#N | 121 to 128 °C
CC(C(=O)O)c1ccc(CC2CCCCC2=NO)cc1 (centres undefined) | 143 to 150 °C
Cc1cc([N+](=O)[O-])c(O)c(Cl)c1C | 62 to 63 °C
Cc1nc2cc(F)c(C)cc2c(=O)[nH]1 | 173 to 174 °C
CC(=O)Nc1ccc(-c2cc(C(C)(C)C)c(O)c(C(C)(C)C)c2)cc1 | 173 to 174 °C
COc1ccc(-c2cnc(N3CCC(O)CC3)nc2)cc1 | 158 to 160 °C
O=C(O)CC1=C(c2ccccc2)c2ccccc2OC1 | 147 to 149 °C
CC(=O)NNc1ccnc2c(NC(=O)c3c(Cl)cccc3Cl)c(C)ccc12 | > 250 °C
CS(=O)(=O)N1CC(=O)NC(=O)N1Cc1ccc(Cl)cc1 | 145 °C
COc1nc(Cl)nc2c1ncn2C1CC(O)C(CO)O1 (centres undefined) | 141 to 142 °C
CCSc1ccc(-c2coc3ccc(-c4nnc(C)o4)nc23)cc1 | 174 to 175 °C
CCOC(=O)c1cc(-c2cccc(OC)c2)[nH]c1N | 96 to 97 °C
OCC[C@@H]1CCCC[C@@H]1c1ccccc1 (relative stereo) | 48 to 50 °C
CC1CN(C(=O)OC(C)(C)C)CCC1(O)c1cc(C(F)(F)F)cc2ccoc12 (centres undefined) | 133 to 136 °C
CCOC(=O)C1=C(COCCNC2=NC(=O)CS2)NC(C)=C(C(=O)OC)C1c1cccc(Cl)c1Cl (centres undefined) | 204 to 205 °C
O=C(O)c1cccc(-c2ccc3c(c2)N(Cc2cc(Cl)ccc2Cl)CC3)c1 | 198 to 199 °C
Cc1cccc(C)c1NCCCNCC(O)COc1ccc(O)cc1 (centres undefined) | 97 to 98 °C
COC(=O)c1c(C)nc2c(c1N)c1c(n2Cc2ccc(OC)cc2)CCCC1 | 130 to 131 °C

SMILES | melting point
Nc1nc(N)nc(C2CC3CC2CC3c2nc(N)nc(N)n2)n1 (centres undefined) | 317 to 324 °C
CCC1(C)CCCC(C)(C)N1OC(C)(C)C#N (centres undefined) | 41 to 52 °C
COc1cc2ncnc(NC3=CC(=O)C(N(C)c4ccccc4)=CC3=O)c2cc1OC | 204 to 206 °C
COc1ccccc1NS(=O)(=O)c1ccc(F)cc1 | 101 to 102 °C
CCc1cn(C)cc(-c2cccc(C(F)(F)F)c2)c1=O | 95.5 to 96.5 °C
CS(=O)(=O)NC1CCN(c2ccc(C#N)c3ccccc23)C1 (centres undefined) | 128 to 129 °C
O=S1(=O)c2ccccc2N(c2ccccc2O)c2ccccc21 | 282 to 287 °C
CCCOc1ccc(OCCCCC(=O)O)c(C=O)c1O | 78 to 79 °C
O=C(c1cc2ccccc2o1)c1ccc(O)c(Cl)c1Cl | 163 °C
CCCCOc1nc(N)c2[nH]c(=O)n(CCCCN(CCCN3CCCC3=O)Cc3cccc(CC(=O)OC)c3)c2n1 | 115 to 116 °C
CC(=O)Nc1ccc(S(=O)(=O)Nc2onc(C)c2Br)cc1 | 208 to 210 °C
CCC(C)C(C#N)NCC(O)c1ccccc1 (centres undefined) | 106 to 108 °C
CSc1nc(-c2cc(C(C)(C)C)c(O)c(C(C)(C)C)c2)c[nH]1 | 249 to 251 °C
NC(=O)c1nc(-c2ccccn2)nc2c1[nH]c(=O)n2-c1ccccc1 | 347 to 349 °C
COc1cc(Nc2nccc(Nc3ccc(OCCCO)cc3)n2)cc(OC)c1OC | 69 °C
O=C1CCC(c2ccc3c(c2)NC(=O)CO3)=NN1 | 274 to 275 °C
CC(C)(C)c1ccc(S(=O)(=O)Nc2ncnc(OCCO)c2Br)cc1 | 146 to 148 °C
CN1CCN(c2cc3c(cc2F)c(=O)c(C(=O)O)cn3C2CSC2)CC1 | 231 to 237 °C
C=C(C)[C@@H]1CC[C@]2(C(=O)O)CC[C@]3(C)[C@H](CC[C@@H]4[C@@]5(C)CC[C@H](OC(=O)[C@H]6C[C@@H](C(=O)O)C6(C)C)C(C)(C)[C@@H]5CC[C@]43C)[C@@H]12 | 308 to 310 °C
COCCOCCOc1ccc2sc(C(=O)Nc3ccccc3N)cc2c1 | 167 to 168 °C
N#Cc1c(SSc2ccc([N+](=O)[O-])cc2C(Cl)(Cl)Cl)ccc2ccccc12 | 170 °C
Cc1nc2cc(NC(=O)c3cc4cc(F)ccc4n3Cc3cccc(F)c3)ccn2c1-c1ccccc1 | 217 to 218 °C
Cc1csc(N)c1S(=O)(=O)CC#N | 88 to 90 °C
CCOC(=O)COc1cc(C)sc1C#N | 58 °C
CC(=O)C(O)C1OC(S(=O)(=O)c2ncc(Cl)cn2)C(O)(C(C)=O)C(O)(C(C)=O)C1(O)C(C)=O (centres undefined) | 180 °C

SMILES | melting point
CCOC(=O)Cc1ccc(OCc2nc(-c3ccccc3)oc2C)c(OC)c1 | 86 to 87 °C
Cc1nc2cccc(S(=O)(=O)n3c(COC(C)C(=O)O)cc4nc(Cl)ccc43)c2s1 (centres undefined) | 203 to 205 °C
CCCCCCCC[C@]1(C)OO[C@@H]2C[C@H]1CC(=O)[C@@H]2C | 27 °C
CSc1cn(C)cc(-c2cccc(C(F)(F)F)c2)c1=O | 121 to 122 °C
NCc1cn2ccccc2n1 | 91 to 93 °C
Cc1cc(-c2cnc(N)c(C(=O)Nc3cccnc3)n2)ccc1F | 186 to 189 °C
O=C1N(Cc2ncccc2Cl)c2ccccc2C12COc1cc3c(cc12)OCCO3 (centres undefined) | 176 to 178 °C
COC(=O)c1cccc(C=Cc2nc3cc(F)ccc3s2)c1 | 172 to 173 °C
Cc1cc(-c2ccc(C#N)cc2)sc1C(=O)N[C@H](C)[C@](O)(Cn1cncn1)c1ccc(F)cc1F | 176 to 177 °C
COC1(c2ccc(Sc3ccc(C(=O)c4ccc(C(F)(F)F)cc4)cc3)s2)CCOCC1 | 86 to 87 °C
CCCCOC(=O)Nc1nc2ccccc2c2c1nc(CC)n2CCCCNS(C)(=O)=O | 164 to 166 °C
CCCC(=O)c1cnc2c(OCCCN(C)CCCc3ccccc3)cccc2c1Nc1ccccc1C | 79 to 81 °C
Cn1cc(-c2ccccc2)c(C(=O)NCCNC(=O)OC(C)(C)C)n1 | 145 °C
COc1ccc(C2(c3ccc(OC(F)F)cc3)N=C(N)N(C)C2=O)cc1C#N (centres undefined) | 104 to 105 °C
COC(=O)Cc1cc(Cl)c2c(c1)CCC(c1ccccc1)N2C (centres undefined) | 78 to 80 °C
C[C@H](NC(=O)c1ccc(C(N)=NO)cc1)C(=O)N1CCC(OCC(=O)OCOC(=O)C(C)(C)C)CC1 | 126 °C
N#Cc1cc([N+](=O)[O-])ccc1N1CCC(=O)CC1 | 109 °C
Cc1ccccc1OCC(O)CNC(C)COc1cccnc1C(N)=O (centres undefined) | 145 to 161 °C
CS(=O)(=O)c1ccc(-c2ccccc2NC(=N)N2CCCCC2)cc1 | 128 to 129 °C
CCOC(=O)Nc1sc(-c2ccc([N+](=O)[O-])cc2)c(C)c1C(=O)OCC | 130 to 131 °C
CC(C)(C)C(=O)c1c[nH]c2ncc(-c3cccc(NS(=O)(=O)c4ccc(N)cc4)c3)nc12 | 264 to 266 °C
O=C1/C(=C/c2ccccc2)C(Br)c2ccccc21 (centres undefined) | 118 to 119 °C
CS(=O)(=O)c1ccc(C2=C(c3ccccc3)C(=O)OC2)cc1F | 161 to 162 °C
CCCNC(=O)C(C)NC(=O)C(C)NC(=O)C(C)NC(=O)OCc1ccccc1 (centres undefined) | 268 to 269 °C
COc1cc(C(C)C)c2c(c1)S(=O)(=O)N(COP(=O)(OCc1ccccc1)OCc1ccccc1)C2=O | 75.5 to 76.5 °C

SMILES | melting point
CC(=O)NC(Cc1ccc(Cl)c(Cl)c1)C(=O)OCc1cc(C)cc(C)c1 (centres undefined) | 118 to 119 °C
Cn1cc(C2=C(c3cn(CCC(=O)O)c4ccccc34)C(=O)NC2=O)c2ccccc21 | 256 to 258 °C
CC1(C)CCC(C)(C)c2cc(-c3cnn(-c4ccc(C(=O)O)cc4)c3)ccc21 | 229 to 232 °C
CC(C)[C@@H]1CC[C@@H](C)C[C@@]1(O)CO | 48 to 50 °C
CN1C(=O)OC(C)(C)c2cc(-c3cc(F)cc(Br)c3)ccc21 | 157 to 158 °C
NS(=O)(=O)c1ccc(S(=O)(=O)N2CCC(=O)CC2)cc1Cl | 195 to 196 °C
COc1ccc(S(=O)(=O)c2c(C(C)C)nn3ccccc23)cc1 | 138 to 139 °C
Nc1ccc(-c2ccc(C(=O)NC3CN4CCC3CC4)o2)cc1 (centres undefined) | 103 to 113 °C
CNC(=O)c1cc(-c2ccc(OC)cc2)nn(CC=C(C)C)c1=O | 104 °C
OCc1cnc2cc(F)ccc2c1O | 295 to 300 °C
O=C(O)c1ccc(Br)cc1-c1cc(Cl)cc(Cl)c1 | 182 to 186 °C
CC(C(=O)OC1(C)CCCCC1)c1ccc2nc(N)sc2c1 (centres undefined) | 165 to 167 °C
CCOC(=O)c1ccc2c(CC[N+](=O)[O-])c[nH]c2c1 | 124 to 127 °C
CCCNC(=O)C(C)Cc1ccc2ccn(Cc3ccc(C(=O)NS(=O)(=O)c4ccccc4C)cc3OC)c2c1 (centres undefined) | 192 to 194 °C
CCOCc1nc2c(N(Cc3ccccc3)Cc3ccccc3)nc(C)cc2n1NC(=O)OC(C)(C)C | 139 to 141 °C
CCOC(=O)c1c(C)cc2nc(CSC(C)=O)n(-c3ccccc3Cl)c(=O)c2c1C | 103 to 105 °C
O=C(Nc1cnc(-n2nc(C(F)(F)F)cc2C2CC2)nc1)c1c(F)cccc1F | 280 to 281 °C
COc1ccc(CCNc2nccc(-c3cccc(NC(C)=O)c3)n2)cc1OC | 146 to 148 °C
CCCc1c(OCCCC(=O)NCCCc2cccnc2)ccc(C(C)=O)c1O | 97 to 98 °C
COC(=O)c1cc(F)c(OC)nc1Nc1ccc(F)cc1F | 160 to 161 °C
CCN(CC)CC=CC(=O)Nc1cc2c(Nc3ccc(F)c(Cl)c3)ncnc2cc1OC1CCCC1 | 105 °C
Cc1ccc(-c2nc(SCc3ccccn3)n[nH]2)c(C)c1 | 112 to 114 °C
O=C1N=CN(CC2CCCCC2)C12CCN(Cc1ccccc1)CC2 | 117 to 118 °C
NC(=O)c1c(F)cccc1C(=O)O | 129 to 132 °C
